Experimental data taken from patent US20160279236A1, “USE OF RAPAMYCIN AS VACCINE ADJUVANT AND PREPARATION METHOD THEREFOR” (INSTITUT PASTEUR OF SHANGHAI, CHINESE ACADEMY OF SCIENCES, priority 2013, published 2016).

Key:
[1] = test system: OVA-specific T cell responses and antibody responses; test: Ovalbumin immunization of mice with adjuvants: OVA-specific T cell and antibody responses; format: in vivo
Method: 6-8 weeks aged mice were primarily immunized by the inventors using intraperitoneal injection method, wherein Ovalbumin (10 μg/mouse) was used as antigen and PBS (negative control), MPL (10 μg/mouse, positive control), rapamycin (100 μg/mouse), rapamycin (100 μg/mouse)+MPL (10 μg/mouse) as adjuvant respectively, and were immunized again with ovalbumin (10 μg/mouse, without adjuvant) at 3 weeks. […] After 48 hours, enzyme linked immunosorbent assay (ELISA) was used to determine the content of IFNγ in the supernatant.

[2] = test system: melanoma murine cell line B16 OVA; test: Tumor growth of B16 OVA melanoma in mice immunized with ovalbumin plus adjuvants; format: in vivo; settings: ovalbumin 10 μg/mouse i.p. prime and boost; polyI:C 50 μg, rapamycin 100 μg, MPL 10 μg per mouse; B16 OVA 1×10^6 cells s.c. 4 weeks after secondary immunization
Method: By intraperitoneal injecting, 6-8 weeks aged mice were immunized using ovalbumin (10 μg/mouse) as antigen and PBS (200 μl, negative control), polyI:C (Invivogen) (50 μg/mouse), rapamycin (100 μg/mouse), MPL (10 μg/mouse), MPL (10 μg/mouse)+rapamycin (100 μg/mouse), polyI:C (50 μg/mouse)+rapamycin (100 μg/mouse) used as adjuvant to conduct primary immunization. After two weeks, the mice were boosted by the same program. 4 weeks after the secondary immunization, melanoma murine cell line B16 OVA expressing OVA was subcutaneous implanted into mice (1×10^6 cells/mouse), and the tumor growth was measured.

[3] = blood 1 week after secondary immunization, single adjuvants vs negative control, combination vs MPL alone

Row | Substance | OVA-specific IgG1 antibody titers [1, 3] | OVA-specific IgG2b antibody titers [1, 3] | OVA-specific IgG2c antibody titers [1, 3] | OVA-specific CD8+ T cell responses ([1]; mice i.p., ovalbumin 10 μg, MPL 10 μg, rapamycin 100 μg per mouse, IFNγ ELISA of splenic cells stimulated with OVA-1, 48 hours) | OVA-specific CD4+ (Th1) T cell responses ([1]; mice i.p., ovalbumin 10 μg, MPL 10 μg, rapamycin 100 μg per mouse, IFNγ ELISA of splenic cells stimulated with OVA-II, 48 hours) | tumor growth [2]
1 | monophosphoryl lipid A [MPL] | significantly increase | significantly increase | significantly increase | significantly increase | significantly increase | –
2 | polyI:C | – | – | – | – | – | grew slowly and was of relatively small volume
